Here are results for 24 compounds from ChEMBL document CHEMBL1909046, “DrugMatrix in vitro pharmacology data”.

Experiment [1] deals with Aldo-keto reductase family 1 member B1 (Rattus norvegicus, UniProt P07943). The experiment in a line: biochemical. Format: tissue-based, Lens of camera-type eye.
In experiment [2] the target is T1, 5-hydroxytryptamine receptor 2C (Homo sapiens, UniProt P28335).
T1 sequence (P28335 whole entry): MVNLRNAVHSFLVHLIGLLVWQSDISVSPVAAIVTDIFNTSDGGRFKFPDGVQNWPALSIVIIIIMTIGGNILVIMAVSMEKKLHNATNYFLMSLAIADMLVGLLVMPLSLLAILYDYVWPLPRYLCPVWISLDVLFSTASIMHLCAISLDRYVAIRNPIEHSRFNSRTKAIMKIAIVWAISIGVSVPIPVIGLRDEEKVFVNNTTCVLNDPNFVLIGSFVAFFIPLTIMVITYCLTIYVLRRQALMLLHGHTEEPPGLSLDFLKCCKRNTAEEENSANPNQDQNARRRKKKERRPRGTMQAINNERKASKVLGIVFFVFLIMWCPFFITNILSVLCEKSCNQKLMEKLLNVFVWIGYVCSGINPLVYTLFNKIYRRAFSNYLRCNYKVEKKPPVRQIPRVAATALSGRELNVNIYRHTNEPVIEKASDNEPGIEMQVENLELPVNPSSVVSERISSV
In words: DRUGMATRIX: Serotonin (5-Hydroxytryptamine) 5-HT2C radioligand binding (ligand: [3H] Mesulergine). The conditions noted are these: Not Active = under 50% inhibition at 10 µM. Format: cell membranes, CHO-K1, Membrane.

In a further experiment the target is Substance-P receptor (Homo sapiens, UniProt P25103). Format: cell membranes, Membrane. The conditions noted are these: cho. Note: in other assays of this panel Not Active means under 50% inhibition at 10 µM.
Experiment [3] can be described thus: DRUGMATRIX: Calcium Channel Type L, Phenylalkylamine radioligand binding (ligand: [3H] (-)-Desmethoxyverapamil (D-888)). The experiment is classed as cell membranes, Rattus norvegicus, Wistar, Brain, Membrane. The conditions noted are these: Not Active = under 50% inhibition at 10 µM.
Experiment [4] is described as follows: DRUGMATRIX: Leukotriene, BLT (LTB4) radioligand binding (ligand: [3H]LTB4). The experiment is classed as cell membranes, Membrane. The conditions noted are these: u-937; Not Active = under 50% inhibition at 10 µM.

Chain of Substance-P receptor (P25103 whole entry): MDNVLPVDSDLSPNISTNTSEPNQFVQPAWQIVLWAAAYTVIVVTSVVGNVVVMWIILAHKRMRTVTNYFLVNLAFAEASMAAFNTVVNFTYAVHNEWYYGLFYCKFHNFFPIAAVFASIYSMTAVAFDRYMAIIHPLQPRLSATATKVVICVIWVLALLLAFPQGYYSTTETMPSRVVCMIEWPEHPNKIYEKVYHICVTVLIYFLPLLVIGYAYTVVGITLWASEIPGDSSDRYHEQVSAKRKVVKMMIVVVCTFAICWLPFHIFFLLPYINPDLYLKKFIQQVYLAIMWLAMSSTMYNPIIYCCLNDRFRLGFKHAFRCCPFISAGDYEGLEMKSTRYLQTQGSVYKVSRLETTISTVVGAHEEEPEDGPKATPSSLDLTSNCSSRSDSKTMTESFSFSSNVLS

For orientation: IC50 means the concentration at which inhibition is half-maximal. The term Ki denotes the equilibrium dissociation constant of an inhibitor or competing ligand from its target. Regarding `COC(=O)Nc1nc2ccc(Sc3ccccc3)cc2[nH]1` [FENBENDAZOLE], the IC50 entry (in experiment [1]; in experiment [2] (cho-k1); against Substance-P receptor; in experiment [3]; in experiment [4]) was “Not Active” each time. The inhibition constant (Ki) result in experiment [3] and in experiment [4] was “Not Active” throughout.
For `Nc1ccc(C(=O)O)c(O)c1` [AMINOSALICYLIC ACID], the half-inhibitory concentration (IC50) result (in experiment [1]; in experiment [2] (cho-k1); against Substance-P receptor; in experiment [3]; in experiment [4]) was “Not Active” each time. Further, the inhibition constant (Ki) entry in experiment [3] and in experiment [4] was “Not Active” each time.
Take `COC(=O)C[C@](O)(CCC(C)(C)O)C(=O)O[C@@H]1C(OC)=C[C@]23CCCN2CCc2cc4c(cc2[C@H]13)OCO4` [HARRINGTONINE]: the IC50 result (in experiment [1]; in experiment [2] (cho-k1); against Substance-P receptor; in experiment [3]; in experiment [4]) was “Not Active” each time. Besides, the inhibition constant (Ki) entry in experiment [3] and in experiment [4] was “Not Active” throughout.
On to `COc1cc(NC(C)CCCN)c2ncccc2c1` (stereo not given) [PRIMAQUINE], for which the half-inhibitory concentration (IC50) entry (in experiment [1]; in experiment [2] (cho-k1); at Substance-P receptor; in experiment [3]; in experiment [4]) was “Not Active” each time. For the same compound, the inhibitory constant (Ki) result in experiment [3] and in experiment [4] was “Not Active” each time.
On to `OC[C@H]1O[C@@H]2O[C@H]3[C@H](O)[C@@H](O)[C@@H](O[C@H]4[C@H](O)[C@@H](O)[C@@H](O[C@H]5[C@H](O)[C@@H](O)[C@@H](O[C@H]6[C@H](O)[C@@H](O)[C@@H](O[C@H]7[C@H](O)[C@@H](O)[C@@H](O[C@H]8[C@H](O)[C@@H](O)[C@@H](O[C@H]1[C@H](O)[C@H]2O)O[C@@H]8CO)O[C@@H]7CO)O[C@@H]6CO)O[C@@H]5CO)O[C@@H]4CO)O[C@@H]3CO` [BETADEX], for which the half-maximal inhibitory concentration (IC50) entry (in experiment [1]; in experiment [2] (cho-k1); on Substance-P receptor; in experiment [3]; in experiment [4]) was “Not Active” each time. The Ki entry in experiment [3] and in experiment [4] was “Not Active” each time.
Regarding `COc1cc([C@@H]2c3cc4c(cc3[C@H](O)[C@H]3COC(=O)[C@H]23)OCO4)cc(OC)c1OC` [PODOFILOX], the IC50 result (in experiment [1]; in experiment [2] (cho-k1); against Substance-P receptor; in experiment [3]; in experiment [4]) was “Not Active” each time. Also, the Ki result in experiment [3] and in experiment [4] was “Not Active” throughout.
Regarding `C[C@H]1C[C@H]2[C@@H]3CCC4=CC(=O)C=C[C@]4(C)[C@@]3(F)[C@@H](O)C[C@]2(C)[C@@]1(O)C(=O)CO` [BETAMETHASONE], the IC50 result (in experiment [1]; in experiment [2] (cho-k1); against Substance-P receptor; in experiment [3]; in experiment [4]) was “Not Active” throughout. The Ki result in experiment [3] and in experiment [4] was “Not Active” throughout.
CARBOXYMETHYLCELLULOSE: the IC50 entry (in experiment [1]; in experiment [2] (cho-k1); on Substance-P receptor; in experiment [3]; in experiment [4]) was “Not Active” each time. Also, the Ki result (in experiment [1]; in experiment [2] (cho-k1); on Substance-P receptor; in experiment [3]; in experiment [4]) was “Not Active” in each case.
With `NC(=O)CN1CCCC1=O`, the half-maximal inhibitory concentration (IC50) entry (in experiment [1]; in experiment [2] (cho-k1); against Substance-P receptor; in experiment [3]; in experiment [4]) was “Not Active” in each case. For the same compound, the Ki entry in experiment [3] and in experiment [4] was “Not Active” in each case.
In the case of `CC(N)Cc1c[nH]c2ccc(OCc3cccs3)cc12` (stereo not given) [BW-723C86], the 50% inhibitory concentration (IC50) entry in experiment [1] was “Not Active”; in experiment [2] (read-out: IC50), 0.204 µM; against Substance-P receptor, “Not Active”; in experiment [3] (read-out: IC50), 4.34 µM; in experiment [4] it was “Not Active”. The values for the Ki in experiment [2] (read-out: Ki), in experiment [3] (read-out: Ki) and in experiment [4] were 0.107 µM, 4.22 µM and “Not Active”, respectively.
Turning to `CNC[C@H](O)c1ccc(O)c(O)c1` [EPINEPHRINE], the concentration for half-maximal inhibition (IC50) result (in experiment [1]; in experiment [2] (cho-k1); on Substance-P receptor; in experiment [3]; in experiment [4]) was “Not Active” each time. In addition, the Ki entry in experiment [3] and in experiment [4] was “Not Active” each time.
For `c1ccc2c(c1)Nc1ccccc1S2` [PHENOTHIAZINE], the half-maximal inhibitory concentration (IC50) entry in experiment [1] was “Not Active”; in experiment [2] (read-out: IC50), 2.24 µM; against Substance-P receptor it was “Not Active”; in experiment [3], “Not Active”; in experiment [4], “Not Active”. Further, the Ki in experiment [2] (read-out: Ki) is 1.17 µM; in experiment [3], “Not Active”; in experiment [4], “Not Active”.
Consider `ClC1=C(Cl)[C@]2(Cl)[C@@H]3[C@@H]4C[C@@H]([C@H]5O[C@@H]45)[C@@H]3[C@@]1(Cl)C2(Cl)Cl` [DIELDRIN], for which the half-inhibitory concentration (IC50) result (in experiment [1]; in experiment [2] (cho-k1); on Substance-P receptor; in experiment [3]; in experiment [4]) was “Not Active” each time. In addition, the Ki result in experiment [3] and in experiment [4] was “Not Active” in each case.
For the compound `CC(C)(c1ccc(O)cc1)c1ccc(O)cc1` [BISPHENOL A], the IC50 entry (in experiment [1]; in experiment [2] (cho-k1); on Substance-P receptor; in experiment [3]; in experiment [4]) was “Not Active” in each case. Further, the Ki entry in experiment [3] and in experiment [4] was “Not Active” each time.
Take `CN(Cc1cc(Br)cc(Br)c1N)C1CCCCC1` [BROMHEXINE]: the IC50 result (in experiment [1]; in experiment [2] (cho-k1); at Substance-P receptor; in experiment [3]; in experiment [4]) was “Not Active” throughout. Moreover, the inhibitory constant (Ki) result in experiment [3] and in experiment [4] was “Not Active” throughout.
For `c1ccc(Cn2ccnc2)cc1`, the IC50 result (in experiment [1]; in experiment [2] (cho-k1); against Substance-P receptor; in experiment [3]; in experiment [4]) was “Not Active” in each case. Further, the Ki result in experiment [3] and in experiment [4] was “Not Active” throughout.
`CCO` [ALCOHOL]: the IC50 entry (in experiment [1]; in experiment [2] (cho-k1); on Substance-P receptor; in experiment [3]; in experiment [4]) was “Not Active” throughout. Further, the Ki result in experiment [3] and in experiment [4] was “Not Active” each time.
For `CCN1CCN(C(=O)N[C@@H](C(=O)N[C@@H]2C(=O)N3[C@@H]2SC(C)(C)[C@@H]3C(=O)O)c2ccccc2)C(=O)C1=O` [PIPERACILLIN], the half-maximal inhibitory concentration (IC50) result (in experiment [1]; in experiment [2] (cho-k1); at Substance-P receptor; in experiment [3]; in experiment [4]) was “Not Active” each time. Moreover, the Ki result in experiment [3] and in experiment [4] was “Not Active” throughout.
`NC(=O)NC(=O)Cc1ccccc1` [PHENACEMIDE]: the half-inhibitory concentration (IC50) result (in experiment [1]; in experiment [2] (cho-k1); on Substance-P receptor; in experiment [3]; in experiment [4]) was “Not Active” throughout. For the same compound, the inhibition constant (Ki) result in experiment [3] and in experiment [4] was “Not Active” throughout.
Consider `CC(CN1c2ccccc2Sc2ccccc21)N(C)C` (stereo not given) [PROMETHAZINE], for which the IC50 entry was “Not Active” in experiment [1]; 0.012 µM in experiment [2] (read-out: IC50); “Not Active” against Substance-P receptor; 0.866 µM in experiment [3] (read-out: IC50); “Not Active” in experiment [4]. Besides, the figures for the inhibition constant Ki in experiment [2] (read-out: Ki), in experiment [3] (read-out: Ki) and in experiment [4] were 0.00648 µM, 0.842 µM and “Not Active”, respectively.
As to `Nc1ccc(Cc2ccc(N)cc2)cc1`, the IC50 entry (in experiment [1]; in experiment [2] (cho-k1); at Substance-P receptor; in experiment [3]; in experiment [4]) was “Not Active” each time. For the same compound, the Ki result in experiment [3] and in experiment [4] was “Not Active” in each case.
On to `CC[C@H]1OC(=O)[C@H](C)[C@@H](O[C@H]2C[C@@](C)(OC)[C@@H](O)[C@H](C)O2)[C@H](C)[C@@H](O[C@@H]2O[C@H](C)C[C@H](N(C)C)[C@H]2O)[C@](C)(O)C[C@@H](C)C(=O)[C@H](C)[C@@H](O)[C@]1(C)O` [ERYTHROMYCIN], for which the IC50 result (in experiment [1]; in experiment [2] (cho-k1); at Substance-P receptor; in experiment [3]; in experiment [4]) was “Not Active” in each case. Also, the inhibition constant Ki entry in experiment [3] and in experiment [4] was “Not Active” throughout.
Turning to `C[N+](C)(C)CCOP(=O)([O-])OC[C@H](O)CO`, the IC50 result (in experiment [1]; in experiment [2] (cho-k1); on Substance-P receptor; in experiment [3]; in experiment [4]) was “Not Active” in each case. In addition, the Ki entry in experiment [3] and in experiment [4] was “Not Active” in each case.
Regarding `Clc1cc(Cl)c(OCC#CI)cc1Cl` [HALOPROGIN], the half-maximal inhibitory concentration (IC50) entry is “Not Active” in experiment [1]; 2.6 µM in experiment [2] (read-out: IC50); “Not Active” against Substance-P receptor; “Not Active” in experiment [3]; “Not Active” in experiment [4]. The Ki in experiment [2] (read-out: Ki) is 1.36 µM; in experiment [3], “Not Active”; in experiment [4] it was “Not Active”.
